Experimental data reported in patent publication US11701434B2, “Tertiary amino lipidated cationic peptides for nucleic acid delivery” (Nutcracker Therapeutics, Inc., priority 2018, dated 2023).

How the values were obtained:
[1] = mRNA encapsulation by Qubit RNA HS dye fluorescence before and after Triton X-100 lysis; format: physicochemical; conditions: Fluc mRNA/peptoid formulation, 5:1 mass ratio peptoid:cargo
Procedure: (§1) In standard formulations, the tertiary amino lipidated and/or PEGylated cationic peptide compound is dissolved in anhydrous ethanol at a concentration of 0.5 mg/mL (for in vitro experiments) or 5 mg/mL (for in vivo experiments). The resulting solutions are stable at room temperature, but should be stored at −20° C. The nucleic acid cargo is dissolved in DNAse or RNAse-free water at a final concentration of 0.2 mg/mL (for in vitro experiments) or 1 mg/mL (for in vivo experiments). These solutions should be stored at −20° C. or at −78° C. for longer time periods. To prepare nanoparticle formulations, the tertiary amino lipidated and/or PEGylated cationic peptide compound is mixed by pipetting with nucleic acid at a mass ratio between approximately 1:1 (peptide compound:cargo) and 20:1. Prior to formulation, tertiary amino lipidated and/or PEGylated cationic peptide compounds and cargo (such as nucleic acid) are diluted in ethanol and acidic buffer (PBS adjusted to pH 5.5 with 0.1 M HCl) respectively to a volume ratio of 1:3 and to target a final cargo concentration of approximately 0.05 mg/mL to 0.2 mg/mL. The exemplary amino lipidated cationic peptoids 1-36 described in Example 2 were combined with firefly luciferase (Flue) mRNA to form nanoparticle compositions to be evaluated for therapeutic and/or prophylactic purposes in vitro or in vivo. The formulations were prepared according to the protocol of Example 3 and mixed by simple pipetting. The mRNA/peptoid formulation at a 5:1 mass ratio of peptoid:cargo were evaluated by dynamic light scattering (DLS) in order to determine the volume average particle size/diameter (nm) of the mRNA/peptoid complex and the size polydispersity index (PDI) within the formulation. The percentage of mRNA encapsulation for each formulation of the exemplary compounds were determined by fluorescence of the Qubit RNA HS (Invitrogen) dye before and after lysis of particles by Triton X-100.

[2] = Dynamic light scattering (DLS) of Fluc mRNA/peptoid formulations: particle size and polydispersity; format: physicochemical; conditions: 5:1 mass ratio peptoid:cargo; for Size (volume average particle size/diameter): Fluc mRNA/peptoid complex; for Size PDI (size polydispersity index): Fluc mRNA/peptoid formulation
Procedure: as §1

% Encapsulation (percentage of mRNA encapsulation) [1] [%]	Size (volume average particle size/diameter) [2] [nm]	Size PDI (size polydispersity index) [2]	Compound
95.9	255.3	0.247	CCCCCCCCCCCCN(CC(N)=O)C(=O)CN(CCCCCCCCCCCC)C(=O)CN(CCc1ccccc1)C(=O)CN(CCc1ccccc1)C(=O)CN(CCN)C(=O)CN(CCc1ccccc1)C(=O)CN(CCc1ccccc1)C(=O)CN(CCN)C(=O)CN(CCc1ccccc1)C(=O)CN(CCc1ccccc1)C(=O)CNCCN [Compound 3]
8.4	773.3	0.021	CCCCCCCCCCN(CC(N)=O)C(=O)CN(CCCCCCCCCC)C(=O)CN(CCCCCCCCCC)C(=O)CN(CCCCCCCCCC)C(=O)CN(CCc1ccccc1)C(=O)CN(CCc1ccccc1)C(=O)CN(CCNC)C(=O)CN(CCc1ccccc1)C(=O)CN(CCc1ccccc1)C(=O)CN(CCNC)C(=O)CN(CCc1ccccc1)C(=O)CN(CCc1ccccc1)C(=O)CNCCNC [Compound 25]
90.1	356.9	0.047	CCCCCCCCN(CC(N)=O)C(=O)CN(CCCCCCCC)C(=O)CN(CCc1ccccc1)C(=O)CN(CCc1ccccc1)C(=O)CN(CCN)C(=O)CN(CCc1ccccc1)C(=O)CN(CCc1ccccc1)C(=O)CN(CCN)C(=O)CN(CCc1ccccc1)C(=O)CN(CCc1ccccc1)C(=O)CNCCN [Compound 1]
65.4	748.2	0.538	CCCCCCCCCCN(CC(N)=O)C(=O)CN(CCCCCCCCCC)C(=O)CN(CCCCCCCCCC)C(=O)CN(CCCCCCCCCC)C(=O)CN(CCCCCCCCCC)C(=O)CN(CCCCCCCCCC)C(=O)CN(CCc1ccccc1)C(=O)CN(CCc1ccccc1)C(=O)CN(CCN)C(=O)CN(CCc1ccccc1)C(=O)CN(CCc1ccccc1)C(=O)CN(CCN)C(=O)CN(CCc1ccccc1)C(=O)CN(CCc1ccccc1)C(=O)CNCCN [Compound 22]
52.0	308	0.085	CCCCCCCCCCN(CC(N)=O)C(=O)CN(CCCCCCCCCC)C(=O)CN(CCCCCCCCCC)C(=O)CN(CCCCCCCCCC)C(=O)CN(CCc1ccccc1)C(=O)CN(CCc1ccccc1)C(=O)CN(CCCN)C(=O)CN(CCc1ccccc1)C(=O)CN(CCc1ccccc1)C(=O)CN(CCCN)C(=O)CN(CCc1ccccc1)C(=O)CN(CCc1ccccc1)C(=O)CNCCCN [Compound 28]
90.3	472.8	0.37	CCCCCCCCCCN(CC(=O)N(CCN)CC(=O)N(CCc1ccccc1)CC(=O)N(CCc1ccccc1)CC(=O)N(CCCCCCCCCC)CC(=O)N(CCN)CC(=O)N(CCc1ccccc1)CC(=O)N(CCc1ccccc1)CC(N)=O)C(=O)CN(CCc1ccccc1)C(=O)CN(CCc1ccccc1)C(=O)CNCCN [Compound 17]
90.4	822.6	0.447	CCCCCCCCCCN(CC(N)=O)C(=O)CN(CCCCCCCCCC)C(=O)CN(CCc1ccccc1)C(=O)CN(CCN)C(=O)CN(CCc1ccccc1)C(=O)CN(CCN)C(=O)CN(CCc1ccccc1)C(=O)CNCCN [Compound 13]
88.4	296.7	0.177	CCCCCCCCCCN(CC(N)=O)C(=O)CN(CCCCCCCCCC)C(=O)CN(CCCCCCCCCC)C(=O)CN(CCc1ccccc1)C(=O)CN(CCc1ccccc1)C(=O)CN(CCN)C(=O)CN(CCc1ccccc1)C(=O)CN(CCc1ccccc1)C(=O)CN(CCN)C(=O)CN(CCc1ccccc1)C(=O)CN(CCc1ccccc1)C(=O)CNCCN [Compound 7]
